The target in one assay is T1, hPARG4 (Homo sapiens, UniProt Q86W56).
T1 construct: a codon optimized gene encoding human PARG(448–976) was synthesized by GeneArt; 6His (TEV-cleavable) (N, cleaved yes); made in house; host or cells: E. coli BL21 (DE3) GOLD
Put plainly: SPR competition experiments against saturating ADP-HPD. The class given is binding. An excerpt: The ADPR and ADP-HPD complex structures superpose almost exactly (r.m.s. deviation 0.14 Å over all Cα; 0.47 Å over all atoms within the binding pocket (MOE, Chemical Computing Group)). ADPR and ADP-HPD engage in equivalent interactions, with the exception of loss of an H-bond between the 1″-OH and Glu756 as this OH is not present in ADP-HPD. […] We speculate that the bound conformation of ADP-HPD is stabilised relative to ADPR by dipole-dipole interactions between the HPD NH2 ^+ and a negatively charged α-phosphate oxygen and/or the oxygen linking the β-phosphate to ribose” (4.1 Å and 2.9 Å separation respectively, Figure 4b). In addition, the α-phosphate oxygen H-bonding network may be strengthened in the ADP-HPD complex by the charged interaction with the pyrrolidine NH2 ^+. This oxygen accepts H-bonds from the backbone NH of Gln754 and a conserved water molecule, and is shielded from solvent by Val753. Binding of ADP-HPD is primarily enthalpy driven (Table 1).
Studies of PARG inhibitor binding were conducted at 25°C. Samples were prepared as 5 fold dilutions in the experimental running buffer (20 mM HEPES pH 7, 150 mM NaCl, 2 mM DTT, 0.005% P20, 0.02% NaN3 with 5% DMSO). Surface regeneration was achieved using dissociation for a time period allowing the response to return to baseline. Control injections of a fixed, saturating ADP-HPD concentration of 20 µM were interspersed with injections of compound to allow monitoring of the functionality of the protein surface. To calculate affinities, SPR equilibrium binding data, consisting of Req values from 8–10 point concentration series, were analyzed by fitting a simple 1∶1 binding model to yield Rmax and Kd values using non-linear regression analysis in Grafit 6 (Erithacus Software).

The target in assay [1] is T2, hPARG (full-length recombinant hPARG(1–976)-6His) (Homo sapiens, UniProt Q86W56).
T2 construct: direct expression of hPARG(1–976) with a C-terminal hexahistidine tag; made in house; host or cells: E. coli BL21 (DE3) GOLD
T2 sequence (Q86W56 whole entry): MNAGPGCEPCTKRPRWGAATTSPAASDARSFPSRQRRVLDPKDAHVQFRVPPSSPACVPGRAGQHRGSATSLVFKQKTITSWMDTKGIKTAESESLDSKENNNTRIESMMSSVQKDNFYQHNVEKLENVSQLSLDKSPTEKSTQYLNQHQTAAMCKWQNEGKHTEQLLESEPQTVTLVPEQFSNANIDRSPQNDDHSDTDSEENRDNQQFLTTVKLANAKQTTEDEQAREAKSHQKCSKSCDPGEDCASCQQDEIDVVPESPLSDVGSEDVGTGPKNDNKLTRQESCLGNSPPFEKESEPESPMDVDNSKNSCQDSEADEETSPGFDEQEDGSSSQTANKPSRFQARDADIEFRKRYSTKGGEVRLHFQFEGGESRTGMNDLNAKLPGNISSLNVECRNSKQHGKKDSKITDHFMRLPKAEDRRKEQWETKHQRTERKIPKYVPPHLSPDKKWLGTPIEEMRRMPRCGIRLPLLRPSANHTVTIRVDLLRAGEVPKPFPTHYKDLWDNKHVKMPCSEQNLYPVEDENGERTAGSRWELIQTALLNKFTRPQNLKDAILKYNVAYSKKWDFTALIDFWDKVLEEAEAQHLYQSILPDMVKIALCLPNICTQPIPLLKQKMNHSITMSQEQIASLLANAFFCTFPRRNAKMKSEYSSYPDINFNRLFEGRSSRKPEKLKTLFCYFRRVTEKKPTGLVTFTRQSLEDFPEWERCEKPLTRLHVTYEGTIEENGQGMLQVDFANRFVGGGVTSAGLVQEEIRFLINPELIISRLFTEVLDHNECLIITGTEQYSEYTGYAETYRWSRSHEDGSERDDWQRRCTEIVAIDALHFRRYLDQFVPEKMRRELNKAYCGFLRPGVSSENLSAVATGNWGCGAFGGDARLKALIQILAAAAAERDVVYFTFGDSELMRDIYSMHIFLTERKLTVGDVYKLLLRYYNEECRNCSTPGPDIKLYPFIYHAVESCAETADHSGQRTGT
The experiment in a line: PARG activity HTRF assay (PAR-PARP1 hydrolysis). Type of assay: biochemical. Particulars: for IC50: hPARG. How it is done: (§1) PARG activity was assessed using an HTRF assay which will be described in detail elsewhere (Bennett et al, manuscript in preparation). […] Following this incubation, biotinylated NAD^+ at a molar ratio to PARylated PARP1 of 0.7∶1 was added and incubation continued for 5 minutes. The reaction was terminated by addition of a PARP1-specific inhibitor to a final concentration of 4.7 µM. The solution was dialysed overnight to remove excess biotinylated NAD^+ and compound, and stored at −80°C. PARG activity was measured in a 384-well format HTRF assay using the biotin-labelled PARylated PARP1 as a substrate. Residual biotinylated PARylated PARP1 was detected by addition of a detection mix containing anti-6His–XL antibody (Cisbio) and streptavidin europium cryptate (Cisbio), and then monitoring the ratio of emission at 665 nm to 612 nm upon excitation at 340 nm.
Inhibition by ADP-HPD was measured using serial dilutions over the range 100 µM to 100 pM compound from a 1 mM stock in water. Assays contained 30 pM purified recombinant PARG and 9.67 nM PAR-PARP1 in a final volume of 9 µL assay buffer (50 mM MOPS pH 7.4, 0.1 mg/mL BSA, 3 mM EDTA, 0.4 mM EGTA, 1 mM DTT, 0.01% v/v Tween20, 50 mM KCl). Reactions were allowed to proceed for 8 minutes prior to the addition of 3 µL detection reagents (50 mM MOPS pH 7.4, 0.1 mg/mL BSA, 0.1 M Potassium Fluoride, 14 nM anti-6HIS-XL antibody, 0.75 nM Streptavidin Europium Cryptate). IC50s were calculated using a time-point of 1.5 hours from the addition of detection reagents.
Here, 17.5 nL of ADP-HPD ([…]) or OA-ADP-HPD (21.43 mM in DMSO) were dispensed by an ECHO555 (Labcyte Inc.) into Greiner white 1536-well plates over the specified range: ADP-HPD (100 µM to 100 pM) and OA-ADP-HPD (500 µM to 30 nM).
ADP-HPD and OA-ADP-HPD inhibition data were visualised in Prism (GraphPad), and IC50s derived from a non-linear regression analysis of the values from three separate experiments (run in triplicate) fit to a sigmoidal dose-response curve.

The target in assay [2] is T3, hPARG4 (hPARG(448–976)) (Homo sapiens, UniProt Q86W56).
T3 construct: a codon optimized gene encoding human PARG(448–976) was synthesized by GeneArt; 6His (TEV-cleavable) (N, cleaved yes); made in house; host or cells: E. coli BL21 (DE3) GOLD
T3 sequence (Q86W56 448-976): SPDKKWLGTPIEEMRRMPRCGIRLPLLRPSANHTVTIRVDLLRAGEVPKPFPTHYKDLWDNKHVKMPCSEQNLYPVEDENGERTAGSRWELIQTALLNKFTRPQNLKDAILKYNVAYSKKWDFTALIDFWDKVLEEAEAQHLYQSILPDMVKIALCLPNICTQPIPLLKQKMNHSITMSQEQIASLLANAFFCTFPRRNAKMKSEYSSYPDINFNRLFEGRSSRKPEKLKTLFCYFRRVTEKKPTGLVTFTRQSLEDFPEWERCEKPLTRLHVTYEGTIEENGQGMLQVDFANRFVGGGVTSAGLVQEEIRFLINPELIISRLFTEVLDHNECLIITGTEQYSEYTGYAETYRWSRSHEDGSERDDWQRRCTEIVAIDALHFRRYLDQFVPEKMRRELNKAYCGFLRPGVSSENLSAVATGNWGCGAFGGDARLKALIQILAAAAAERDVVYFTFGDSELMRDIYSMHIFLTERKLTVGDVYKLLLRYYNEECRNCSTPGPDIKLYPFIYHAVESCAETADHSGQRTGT
The experiment in a line: Isothermal titration calorimetry. The conditions noted are these: 25°C; for Kd: read-out: KD (ITC); for ΔG / ΔH / ΔS: ITC. The class given is binding. As to the method: (§2) This was carried out using an iTC200 instrument (Microcal, GE Healthcare, Northampton, MA) at 25°C in the following buffer: 20 mM HEPES pH 7, 150 mM NaCl, 2 mM DTT, 0.02% NaN3. Protein concentrations were typically 30 µM in the cell with ligand concentrations of at least 10 fold this concentration in the syringe. Typical injection protocols of 19×2 µL injections, spaced at 2 or 3 minute intervals were used. Curves were fitted by non-linear regression analysis using a one-site binding model provided by MicroCal Origin software (version 7).

Assay [3] is described as follows: Cell activity of PARG inhibitor (data not shown). Type of assay: cell-based.
For assay [4], the target named is T4, hPARG26 (hPARG(448–976 [K616A, Q617A, K618A, E688A, K689A & K690A])) (Homo sapiens, UniProt Q86W56, E688A/K616A/K618A/K689A/K690A/Q617A).
T4 construct: a codon optimized gene encoding human PARG(448–976 [K616A, Q617A, K618A, E688A, K689A, K690A]); 6His (TEV-cleavable) (N, cleaved yes); made in house; host or cells: E. coli BL21 (DE3) GOLD (shake flasks, as for hPARG4)
T4 sequence (Q86W56 448-976 K616A/Q617A/K618A/E688A/K689A/K690A): as the sequence (Q86W56 448-976) above, with K169A, Q170A, K171A, E241A, K242A, K243A counted along it
The experiment in a line: PARG activity HTRF assay (PAR-PARP1 hydrolysis). The conditions noted are these: 9 µL HTRF. The class given is biochemical. How it is done:
as §1
(§3) Inhibition by ADP-HPD was measured using serial dilutions over the range 100 µM to 100 pM compound from a 1 mM stock in water. Assays contained 30 pM purified recombinant PARG and 9.67 nM PAR-PARP1 in a final volume of 9 µL assay buffer (50 mM MOPS pH 7.4, 0.1 mg/mL BSA, 3 mM EDTA, 0.4 mM EGTA, 1 mM DTT, 0.01% v/v Tween20, 50 mM KCl). […] IC50s were calculated using a time-point of 1.5 hours from the addition of detection reagents. […]

The target of assay [5] is T3, hPARG4 (hPARG(448–976)). The experiment in a line: PARG activity HTRF assay (PAR-PARP1 hydrolysis). Particulars: 9 µL HTRF. The class given is biochemical. How it is done: as §1, §3
Assay [6] concerns the target T5, hPARG (full-length) (Homo sapiens, UniProt Q86W56).
T5 construct: direct expression of hPARG(1–976) with a C-terminal hexahistidine tag; made in house; host or cells: E. coli BL21 (DE3) GOLD
The experiment in a line: SPR binding to immobilised PARG, steady state fits. The conditions noted are these: 25°C, steady state fit. How it is done:
(§4) Biosensor (SPR) analyses were conducted using a BIAcore 3000 or BIAcore S51 instrument. Research grade CM5 chips and coupling reagents (N-ethyl-N′-dimethylaminopropylcarbodiimide, EDC; N-hydroxysuccinimide, NHS; and 1 M ethanolamine HCl, pH 8.5) were purchased from BIAcore (GE Healthcare, Northampton, MA).
(§5) A CM5 chip was docked into the instrument, primed 5 times with filtered and degassed running buffer containing 50 mM HEPES pH 7, followed by preconditioning at 100 µL/min using two consecutive aliquots of 50 µL each of 10 mM HCl, 50 mM NaOH, 0.1% (w/v) SDS, 0.085% (v/v) H3PO4. PARG surfaces were prepared by standard amine coupling via exposed amines on PARG. Immobilisations were conducted at 25°C in 50 mM HEPES at a flow rate of 5 µL/min. Flow cells were activated for 7 min by injecting a 35 µL mixture of 50 mM NHS: 200 mM EDC. Subsequently, 35 µL of 100 µg/mL PARG was injected for 7 min, followed by a 35 µL injection of ethanolamine. Typical immobilisation levels ranged from 3000 to 5000 resonance units (RU). Nonderivatised flow cells served as reference surfaces.
(§6) Studies of PARG inhibitor binding were conducted at 25°C. […] To calculate affinities, SPR equilibrium binding data, consisting of Req values from 8–10 point concentration series, were analyzed by fitting a simple 1∶1 binding model to yield Rmax and Kd values using non-linear regression analysis in Grafit 6 (Erithacus Software).

Assay [7] deals with T3, hPARG4 (hPARG(448–976)). Put plainly: SPR binding to immobilised PARG, steady state fits. The conditions noted are these: 25°C, steady state fit. How it is done: as §4, §5, §6
Assay [8] addresses T5, hPARG (full-length). Put plainly: Isothermal titration calorimetry. Type of assay: binding. The conditions noted are these: 25°C. As to the method: as §2
Assay [9] has as its system bovine PARG (bPARG), purified full-length protein. Also noted: method as in PMID 13678410. Particulars: read-out: IC50, literature value; cited from earlier work.
In assay [10] the test system is bovine PARG (bPARG), recombinant catalytic domain. Also noted: method as in PMID 13678410. The conditions noted are these: recombinant catalytic domain of bPARG; read-out: IC50, literature value; cited from earlier work.
In a further assay the target is bPARG. More on the design: method as in PMID 7830282. Particulars: cited from earlier work.
The test system of another assay is TcPARG Glu114Ala mutant. Also noted: method as in supplemental 4 (Slade et al., 2011). Particulars: ref supplemental 4 (Slade et al., 2011); cited from earlier work.
The next assay concerns TcPARG Glu115Ala mutant. Also noted: method as in supplemental 4 (Slade et al., 2011). Particulars: ref supplemental 4 (Slade et al., 2011); cited from earlier work.

Values joined by “and” are separate entries in the source; they are usually repeats but may differ in a detail not shown here. Equal values may be shown once. Read-outs that look alike come from different tables or passages of the source.

The values below come from publication PMC3519477, “Structures of the Human Poly (ADP-Ribose) Glycohydrolase Catalytic Domain Confirm Catalytic Mechanism and Explain Inhibition by ADP-HPD Derivatives” (PLoS ONE, 2012).

T1 sequence (Q86W56 448-976): as the sequence (Q86W56 448-976) above
T5 sequence (Q86W56 whole entry): as the sequence (Q86W56 whole entry) above

For the compound `Nc1ncnc2c1ncn2[C@@H]1O[C@H](COP(=O)(O)O)[C@@H](O)[C@H]1O` [AMP], the “drop-off in affinity upon removal of the β-phosphate-ribose moiety” value at hPARG4 (AMP compared with ADPR) was found to be 10 fold. Besides, the Kd on hPARG4 (same competition-based method as for ADPR, n = 1, read-out: approximate KD (SPR competition)) is roughly 380 µM.
For `CCCCCCCCNc1nc2c(N)ncnc2n1[C@@H]1O[C@H](COP(=O)(O)OP(=O)(O)OC[C@H]2NC[C@H](O)[C@@H]2O)[C@@H](O)[C@H]1O` [OA-ADP-HPD, 8-n-octyl-amino-ADP-HPD], in assay [1] (compared with ADP-HPD, used as maximally-inhibited control in HTS assay), the “completeness of inhibition of hPARG activity in vitro” value is given as “more complete inhibitor”. Further, in assay [1] (HTS campaign format, 3 µL reaction, 1536-well, 10 min, read-out: IC50), the half-maximal inhibitory concentration (IC50) came out at 16.3 ± 1.1 µM. Also, on hPARG4 (hPARG(448–976)) [2], the Kd came to 800 ± 100 nM, the ΔG was -34.9 ± 0.3 kJ/mol, the ΔH was -50.6 ± 1.4 kJ/mol and the ΔS was −52.9±4.7 J/mol/K. For the same compound, in [3], the cell activity result is on record as “unable to show cell activity”.
With `Nc1ncnc2c1ncn2C1OC(COP(=O)(O)OP(=O)(O)OCC2NCC(O)C2O)C(O)C1O` (stereo not shown) [ADP-HPD, adenosine 5′-diphosphate (hydroxymethyl)pyrrolidinediol], the IC50 is 3 µM and 3.1 µM in assay [1] (384-well HTRF, 9 µL, 30 pM PARG, 9.67 nM PAR-PARP1, 8 min reaction, read-out: IC50); roughly 0.6 µM in assay [1] (conditions of the High Throughput Screening campaign, read-out: IC50 under HTS campaign conditions); 1100 ± 220 nM in assay [4]; 970 ± 240 nM against hPARG4 (hPARG(448–976)) [5]; 330 nM in assay [9]; 1000 to 1400 nM in [10]. The dissociation constant Kd at hPARG (full-length) [6] was 44.8 ± 2.9 nM; on hPARG4 (hPARG(448–976)) [7], 64.3 ± 2.6 nM; at hPARG (full-length) [8] (values heavily influenced by base-line noise (Figure S2), read-out: KD (ITC)), 416 ± 89.9 nM; on hPARG4 (hPARG(448–976)) [2], 132 ± 14 nM; at bPARG (read-out: KD, literature values for bPARG), 0.05 to 0.08 µM. Also, the ΔG at hPARG (full-length) [8] (ITC) is -36.4 ± 0.5 kJ/mol; at hPARG4 (hPARG(448–976)) [2], -39.4 ± 0.3 kJ/mol. The ΔH at hPARG (full-length) [8] (ITC) was -30.8 ± 0.04 kJ/mol; at hPARG4 (hPARG(448–976)) [2], -56.1 ± 0.4 kJ/mol. Also, the ΔS result is listed as “+18.8±1.7 J/mol/K” on hPARG (full-length) [8] (ITC) and −56.1±0.5 J/mol/K at hPARG4 (hPARG(448–976)) [2].
As for `Nc1ncnc2c1ncn2C1OC(COP(=O)(O)OP(=O)(O)OCC2OC(O)C(O)C2O)C(O)C1O` (stereo not shown) [ADPR, ADP-ribose], the “weaker affinity relative to ADP-HPD” value at hPARG4 (binding to hPARG, compared with ADP-HPD) is on record as roughly 1000 fold. Besides, the Kd was roughly 40 µM at hPARG4 (hPARG4-ADP-HPD complex formed in situ, increasing concentrations of compound, data not shown, read-out: KD (SPR competition)) and 120 µM at bPARG (read-out: KD, reported value for bPARG). The “decrease in affinity versus wild-type” value in the assay on TcPARG Glu114Ala mutant is given as “No detectable activity; 10-fold decrease in ADPR affinity”. The “effect of mutation on affinity” value in the assay with TcPARG Glu115Ala mutant is “No detectable activity; no effect on ADPR affinity”.
